The source of these data is ChEMBL document CHEMBL1770096, “Structure-activity relationships of trans-substituted-propenoic acid derivatives on the nicotinic acid receptor HCA2 (GPR109A)” (Bioorg Med Chem Lett, 2011).

For the test, the target named is Hydroxycarboxylic acid receptor 2 (Homo sapiens) (UniProt Q8TDS4). Briefly: Displacement of [3H]nicotinic acid from human GPR109a receptor expressed in human HEK293T cells at 10 uM by liquid scintillation counting. Type of test: cell-based. The conditions noted are these: HEK-293T. (In general: Loss of bound radioactivity is the signal in a displacement assay; it reports binding, not function.)
Sequence of Hydroxycarboxylic acid receptor 2 (Homo sapiens) (Q8TDS4 whole entry): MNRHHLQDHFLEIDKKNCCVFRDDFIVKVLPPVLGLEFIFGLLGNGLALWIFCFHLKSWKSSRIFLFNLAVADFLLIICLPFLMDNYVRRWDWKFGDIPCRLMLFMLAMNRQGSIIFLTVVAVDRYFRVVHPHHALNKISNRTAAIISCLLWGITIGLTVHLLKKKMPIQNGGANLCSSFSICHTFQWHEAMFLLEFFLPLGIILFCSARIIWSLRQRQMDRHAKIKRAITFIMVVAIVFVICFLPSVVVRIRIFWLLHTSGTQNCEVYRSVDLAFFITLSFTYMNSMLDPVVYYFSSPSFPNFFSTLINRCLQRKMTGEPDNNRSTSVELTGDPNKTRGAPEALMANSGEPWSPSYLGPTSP

Take `COc1cc(/C=C/C(=O)O)ccc1O`: the Activity was found to be 0%.
With `O=C(O)/C=C/C(=O)O`, the Activity amounted to 10%.
